Measurements: patent US12441768B2, “Compositions and methods for treating endometriosis” (EndoMet Biosciences, Inc., priority 2018, dated 2025)
Where a SMILES comes first, the peptide text is derived from it.

Legend:
[1] = target: Wnt-responsive promoter (TCF/LEF); assay: Wnt-dependent luciferase reporter assay; type: cell-based, murine
In short: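 EC50 (uM) derived from inhibition of luminescence in Wnt3a-stimulated murine 3T3 cells expressing luciferase under a TCF/LEF promoter, with peptides added across a concentration range and vehicle as control.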

[2] = target: T1, β-catenin (Homo sapiens, UniProt P35222); assay: KD50 measurement using competitive fluorescence polarization (FP) with labelled TCF4; type: binding; conditions: fluorescence polarization, β-catenin; for Kd: read-out: β-Cat FP KD
T1 sequence (P35222 1-781): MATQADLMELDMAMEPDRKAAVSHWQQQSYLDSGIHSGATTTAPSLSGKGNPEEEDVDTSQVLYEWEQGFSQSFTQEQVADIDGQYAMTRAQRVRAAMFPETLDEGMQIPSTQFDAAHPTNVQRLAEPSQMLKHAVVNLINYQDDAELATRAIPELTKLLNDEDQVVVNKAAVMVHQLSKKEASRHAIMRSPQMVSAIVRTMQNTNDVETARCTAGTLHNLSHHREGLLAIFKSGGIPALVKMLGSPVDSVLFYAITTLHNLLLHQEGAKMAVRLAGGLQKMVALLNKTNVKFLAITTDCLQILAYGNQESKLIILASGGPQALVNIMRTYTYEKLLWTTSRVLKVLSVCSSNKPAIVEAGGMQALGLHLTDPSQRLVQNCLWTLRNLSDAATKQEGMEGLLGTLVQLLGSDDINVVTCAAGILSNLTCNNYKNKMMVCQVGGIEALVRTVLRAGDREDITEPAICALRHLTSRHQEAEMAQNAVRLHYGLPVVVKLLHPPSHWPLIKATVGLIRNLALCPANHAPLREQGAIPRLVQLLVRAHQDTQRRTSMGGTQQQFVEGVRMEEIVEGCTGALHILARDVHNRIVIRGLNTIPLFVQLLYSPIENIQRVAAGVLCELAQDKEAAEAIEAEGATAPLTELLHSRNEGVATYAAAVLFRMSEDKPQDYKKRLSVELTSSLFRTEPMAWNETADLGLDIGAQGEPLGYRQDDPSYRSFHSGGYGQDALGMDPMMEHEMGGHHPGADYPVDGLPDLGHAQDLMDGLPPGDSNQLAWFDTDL
In short: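 Polarization readout (470 nm excitation, 520 nm emission) tracks loss of labelled TCF4 binding to β-catenin as test compound competes. Conditions were 5 nM tracer, 100 nM β-catenin, room temperature, compound serially diluted from 10 nM to 30 uM; run in triplicate experiments.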

[3] = % Viability non-Wnt responsive cells

SMILES	EC50 [1] [µM]	β-Cat FP Hill slope [2]	Kd [2] [µM]	viability [3] [%]
CC[C@H](C)[C@H](NC(=O)[C@H](CC(C)C)NC(=O)[C@H](Cc1ccccc1)NC(=O)[C@H](Cc1c[nH]c2ccccc12)NC(=O)[C@@H](N)CCSC)C(=O)N[C@@H](CO)C(=O)N[C@@H](Cc1ccccc1)C(=O)N[C@@H](Cc1c[nH]c2ccccc12)C(=O)N(C)[C@@H](C)C(=O)NCC(=O)O [compound 45] (HELM PEPTIDE1{M.W.F.L.I.S.F.W.[meA].G}$$$$V2.0)	< 7.5	0.9	0.4 to 1	101
CC[C@H](C)[C@H](NC(=O)[C@H](CC(C)C)NC(=O)[C@H](Cc1ccccc1)NC(=O)[C@H](Cc1c[nH]c2ccccc12)NC)C(=O)N[C@@H](CO)C(=O)N[C@@H](Cc1ccccc1)C(=O)N[C@@H](Cc1c[nH]c2ccccc12)C(N)=O [compound 102] (HELM PEPTIDE1{[meW].F.L.I.S.F.W.[am]}$$$$V2.0)	15 to 22.5	0.7	< 0.4	101
CCOC[C@H](NC(=O)[C@H](CO)NC(=O)[C@@H](NC(=O)[C@H](CC(C)C)NC(=O)[C@H](Cc1ccccc1)NC(=O)[C@@H](N)Cc1c[nH]c2ccccc12)[C@@H](C)CC)C(=O)N[C@@H](Cc1c[nH]c2ccccc12)C(=O)O [compound 104] (H-WFLISS(Et)W-OH)	7.5 to 15	3	1 to 10	104
CC[C@H](C)[C@H](NC(=O)[C@H](CC(C)C)NC(=O)[C@H](Cc1ccccc1)NC(=O)[C@H](Cc1c[nH]c2ccccc12)NC(=O)[C@H](CCSC)NC(=O)[C@H](CCCNC(=N)N)NC(=O)[C@H](CO)NC(=O)[C@@H](N)CCSC)C(=O)N[C@@H](CO)C(=O)N[C@@H](CO)C(=O)N[C@@H](Cc1c[nH]c2ccccc12)C(=O)NCC(=O)O [compound 54] (H-MSRMWFLISSWG-OH)	15 to 22.5	0.7	1 to 10	98.3
CC[C@H](C)[C@H](NC(=O)[C@H](CC(C)C)NC(=O)[C@H](Cc1ccccc1)NC(=O)[C@H](Cc1c[nH]c2ccccc12)NC(=O)[C@@H](N)CC(=O)O)C(=O)N[C@@H](CS)C(=O)N[C@@H](Cc1ccccc1)C(=O)N[C@@H](Cc1c[nH]c2ccccc12)C(=O)NCC(=O)O [compound 142] (H-DWFLICFWG-OH)	< 7.5	1.15	< 0.4	108
CC[C@H](C)[C@H](NC(=O)[C@H](CC(C)C)NC(=O)[C@H](Cc1ccccc1)NC(=O)[C@H](Cc1c[nH]c2ccccc12)NC(=O)[C@@H](N)CCSC)C(=O)N[C@@H](CO)C(=O)N[C@@H](Cc1ccccc1)C(=O)N[C@@H](Cc1c[nH]c2ccccc12)C(=O)N[C@@H](C)C(=O)O [compound 162] (H-MWFLISFWA-OH)	7.5 to 15		> 30	104
CC[C@H](C)[C@H](NC(=O)[C@H](Cc1c[nH]c2ccccc12)NC(=O)[C@@H](N)CCSC)C(=O)NC(C)(CC(C)C)C(=O)N[C@H](C(=O)N[C@@H](CS)C(=O)N[C@@H](Cc1ccccc1)C(=O)N[C@@H](Cc1c[nH]c2ccccc12)C(=O)NCC(=O)O)[C@@H](C)CC (stereo partly shown) [compound 130] (HELM PEPTIDE1{M.W.I.[CC(C)CC(C)(N[*:1])C(=O)[*:2]].I.C.F.W.G}$$$$V2.0)	22.5 to 30	0.72	1 to 10	98.3
CC[C@H](C)[C@H](NC(=O)[C@H](CC(C)C)NC(=O)[C@H](Cc1ccccc1)NC(=O)[C@H](Cc1c[nH]c2ccccc12)NC)C(=O)N[C@@H](CO)C(=O)N[C@@H](Cc1ccccc1)C(=O)N[C@@H](Cc1c[nH]c2ccccc12)C(=O)O [compound 111] (HELM PEPTIDE1{[meW].F.L.I.S.F.W}$$$$V2.0)	7.5 to 15	2.06	0.4 to 1	99.8
